Converted amounts (≈) assume the structure as drawn.
Key:
Test in all cases: Antibacterial activity (MIC)
Type in all cases: cell-based
[1] = test system: Serratia marcescens ES-75; conditions: ES75
Proteus morganii EP-14 = conditions: Morganella morganii, EP14
[2] = test system: Pseudomonas aeruginosa EP-172; conditions: EP172
[3] = test system: Klebsiella pneumoniae EK-6; conditions: EK6
Escherichia coli NIHJ = test system: Escherichia coli NIHJ
[4] = test system: Staphylococcus aureus 209-P

With `CCOC(=O)Oc1cc2occ(C(=O)N[C@@H](C(=O)N[C@@H]3C(=O)N4C(C(=O)O)=C(CSc5nnnn5CC(=O)O)CS[C@H]34)c3ccc(O)cc3)c(=O)c2cc1OC(=O)OCC` [Preparatory Example 2 A, 7β-[D-2-{6,7-bis(ethoxycarbonyloxy)chromone-3-carboxamido}-2-(4-hydroxyphenyl)acetamido]-3-[(1-carboxymethyl-5-tetrazolyl)thiomethyl]-3-cephem-4-carboxylic acid] the MIC [1] was ≤ 0.05 µg/mL, the MIC (Proteus morganii EP-14) was 1.56 µg/mL (≈ 1.79 µM) and the MIC [2] was 0.8 µg/mL (≈ 0.92 µM). For the same compound, the MIC [3] was ≤ 0.05 µg/mL, the MIC (Escherichia coli NIHJ) was 0.4 µg/mL (≈ 0.46 µM) and the MIC [4] was 6.25 µg/mL (≈ 7.19 µM).

`O=C(O)Cn1nnnc1SCC1=C(C(=O)O)N2C(=O)[C@@H](NC(=O)[C@H](NC(=O)c3coc4cc(O)c(O)cc4c3=O)c3ccc(O)cc3)[C@H]2SC1` [Preparatory Example 2 B, 7β-[D-2-(6,7-Dihydroxychromone-3-carboxyamido)-2-(4-hydroxyphenyl)acetamido]-3-[(1-carboxymethyl-5-tetrazolyl)thiomethyl]-cephem-4-carboxylic acid] was tested, and the MIC [1] was ≤ 0.1 µg/mL, the MIC (Proteus morganii EP-14) was 12.5 µg/mL (≈ 17.2 µM) and the MIC [2] was 0.8 µg/mL (≈ 1.1 µM). The MIC [3] was ≤ 0.1 µg/mL, the MIC (Escherichia coli NIHJ) was 0.4 µg/mL (≈ 0.551 µM) and the MIC [4] was 3.13 µg/mL (≈ 4.31 µM).
